From patent publication US5206014A, “Synthetic nonapeptide for use as an adjuvant” (Sclavo, S.p.A., priority 1987, dated 1993)

Assays:
Format in all cases: in vivo
[1] = test system: primary response to polysaccharide of Streptococcus pneumoniae serotype 3 (SIII); experiment: Primary antibody response to thymo-independent antigen SIII, PFC/spleen in immunized mice; details: 500 U/kg intraperitoneally
Description: (§1) More particularly, the immunostimulating activity of peptides 163-171 TFA and 163-171.HCl were assayed in the antibody response to sheep's red blood compuscles, thymo-dependent antigens and in response to the polysaccharide of Streptococcus pneumoniae serotype 3 (SIII), a thymo-independent antigen having low immunogenicity by using the method of haemolysis of plaques described by Cunningham A. J. and Szenberg (Immunology, 14, 599, 1968).
(§2) According to the invention, therefore, anti-body secreting cells of Classes IgM and IgG are determined by isolating lymphocytes from the spleen of mice immunized with SRBC and SIII antigens and treated by various methods and with various doses of peptide 163-171.TFA and peptide 163-171.HCl. To this end use has been made with identical results of inbred male C3H/HeNCr1BR mice and male and female C3H/HeJ mice weighing about 25 g. According to the invention, SRBC and SIII antigens previously dissolved in phosphate buffer (PBS) were inoculated in the mice, intravenously and intraperitoneally respectively, at a concentration of 1-2×10^8 SRBC/0.2 ml of PBS and 0.5 μg/0.5 ml of PBS. […]
The adjuvant activity of peptide 163-171.TFA and of human IL-1-β were then determined as in Example 1 by using 25 μl of a 10% suspension of SIII antigen conjugated with SRBC by chromium chloride in PBS (Baker P. J. et al. Appl. Microbiol. 17, 422 (1969)). […]

[2] = test system: secondary antibody response to SRBC; experiment: Secondary antibody response to SRBC, total PFC/spleen (IgM+IgG) in immunized mice; details: measured four days later, PBS control 29.992
Description: The number of IgG class antibody-secreting cells characteristic of the secondary response is determined, before the complement is added, by adding a direct rabbit antiserum against mouse immunoglobulins.
According to the invention, therefore, anti-body secreting cells of Classes IgM and IgG are determined by isolating lymphocytes from the spleen of mice immunized with SRBC and SIII antigens and treated by various methods and with various doses of peptide 163-171.TFA and peptide 163-171.HCl. To this end use has been made with identical results of inbred male C3H/HeNCr1BR mice and male and female C3H/HeJ mice weighing about 25 g. According to the invention, SRBC and SIII antigens previously dissolved in phosphate buffer (PBS) were inoculated in the mice, intravenously and intraperitoneally respectively, at a concentration of 1-2×10^8 SRBC/0.2 ml of PBS and 0.5 μg/0.5 ml of PBS.
Mice immunized with SRBC as in Example 1 hereinbefore were intraperitoneally re-inoculated four days after the first inoculation with a similar dose of SRBC antigens and simultaneously with 12, 36, 100 mg/kg peptide 163-171.TFA and 500 - 1000 - 2000 U/kg of human IL-1-β.
The immunostimulating activity of the peptide on the secondary response to SRBC was also determined by administering the same doses of peptide and human IL-1β but only with the first inoculation.
Four days after the second dose the mice were killed and the number of PFC/spleen was determined as in Example 1, after combining the complement with a rabbit serum against mouse immunoglobulin at a final dilution of 1:200.
^a The mice intravenously inoculated with 1-2 × 10^8 SRBC o
day -10 and were given a similar dose on day 0 and simultaneously treated
intraperitoneally with PBS (control) or with various doses of peptide
163-171.TFA or hu rIL1β. The total number of antiSRBC PFC was
measured four days after the second inoculation of antigen.
The procedure was the same as in Example 4, the antigen being intravenously inoculated together with preparations of peptide 163-171.TFA and 163-171.HCl (from 100 pg/kg to 100 μg/kg in PBS).

[3] = test system: primary antibody response to sheep's red corpuscles (SRBC), thymo-dependent antigen; experiment: Primary antibody response to SRBC, direct haemolysis plaque (PFC/spleen, IgM) in immunized mice
Description: as §1
The method consists in determining the number of cells which secrete antibodies specific to a given antigen. It consists in immunizing mice with the antigen to be assayed, placing lymphocytes obtained from the spleen of the immunized mice in contact with the same antigen, and finally in detecting the haemolysis plaques by adding complement.
Lysis zones (plaque-forming cells PFC) are observed at the place where the antigen-antibody reaction occurs, i.e. at each cell producing specific antibodies.
as §2
The slides, sealed at the edges with paraffin, were then incubated in a thermostat at 37° C. for one hour. At the end of this period, the plaques of direct haemolysis were counted using a light-contrast visor, indicating the number of lymphocytes secreting antibodies (PFC). The thus-detected antibodies were in Class IgM, specific to the primary antibody response. […]

Substance: hu rIL-1β: human interleukin 1β (Genzyme Corporation Boston), comparator adjuvant
- Statistical significance versus control of PFC/spleen, primary response to SIII (FIG. 5) [1]: non-significant
- Average of total anti-SRBC PFC-spleen (95% confidence limits) ([2]; 500 U/kg intraperitoneally with second SRBC inoculum (day 0)): 59.841 (45.604-78.343) PFC-spleen
- Average of total anti-SRBC PFC-spleen (95% confidence limits) ([2]; 1000 U/kg intraperitoneally with second SRBC inoculum (day 0)): 77.624 (61.502-97.499) PFC-spleen
- Average of total anti-SRBC PFC-spleen (95% confidence limits) ([2]; 2000 U/kg intraperitoneally with second SRBC inoculum (day 0)): 100.000 (84.139-118.850) PFC-spleen
- Average of total anti-SRBC PFC-spleen (95% confidence limits) ([2]; 4000 U/kg intraperitoneally with second SRBC inoculum (day 0)): 42.364 (29.853-59.979) PFC-spleen
- Statistical significance versus control of PFC/spleen, primary response to SRBC (FIG. 1-B) ([3]; 4000 U/kg intraperitoneally): non-significant
- Effect on number of plaques/spleen, primary response to SRBC (FIGS. 1A, 1B) ([3]; intraperitoneal, peptide 12-100 mg/kg, IL-1β 500-4000 U/kg, depending on the dose): increase in the number of plaques/spleen
- Optimum intravenous dose ([3]; intravenous, response not specified): 0.0001 µg/kg
